From publication PMC10286336, “Potassium ion channels as a molecular target to reduce virus infection and mortality of honey bee colonies” (Virology Journal, 2023)

Experiments:
[1] = test system: IAPV; test: IAPV mRNA titer in excised dorsal vessels by qRT-PCR; type: in vivo, Israeli acute paralysis virus; conditions: pinacidil 24 h prior to IAPV inoculation; vessels excised 24 h post-inoculation
Procedure: Groups of 30 age-matched bees were fed 1:1 sucrose diet alone or containing KATP modulators or 0.5 mg/mL paraquat for 24 h. Bees were immobilized on ice, then injected with PBS alone or containing IAPV and returned to the incubator. Mortality assessments and sampling of survivors were conducted at 24-h intervals. Quantification of IAPV mRNA among whole bees and excised insect dorsal vessels was performed by qRT-PCR as detailed below.
Samples were removed from − 80 °C storage and placed in a nuclease-free chilled bead bath (~ 4 °C) to gently thaw. […] RNA concentrations were then quantified for each sample using the NanoDrop 1-C® instrument. […] Library construction was performed using the Quantitect Reverse Transcription kit according to manufacturer instructions (Qiagen, N.V.). Template cDNA was then quantified by NanoDrop 1-C® and standardized to 500 ng/uL by addition of nuclease-free H2O.
To accurately quantify virus infection, it was necessary to first construct a standard curve for each target virus. […] Single-stranded DNA concentration was quantified for each cDNA library with the NanoDrop 1-C® instrument (Thermofisher Scientific) and the number of amplicon copies per μL of solution was determined using online calculators available at SciencePrimer.com. […]

[2] = test system: total antioxidant concentrations in bees; test: Total antioxidant capacity of bees (quantification of ROS); type: in vivo, Apis mellifera; conditions: alone
Procedure: The ability of KATP modulators to rescue or synergize paraquat-induced mortality was then assessed by incorporating modulators into 1:1 sucrose containing paraquat. […] Quantification of ROS among survivors was performed using the Total Antioxidant Capacity Assay kit (Cayman Chemical).

[3] = test system: phenoloxidase (POX); test: Phenoloxidase activity of treated bees (individual immunity); type: in vivo, Apis mellifera; conditions: 24- and 72-h exposure
Procedure: Individual bees were sampled at 24-h intervals and frozen in liquid nitrogen. Social immunity was measured by quantifying the metabolism of glucose to hydrogen peroxide by glucose oxidase. Briefly, heads were homogenized in ice-cold extraction buffer then centrifuged at 15,000×g. Aliquots of supernatant were incubated with horse radish peroxidase and glucose at 37 °C, then combined with the chromogen o-dianisidine dihydrochloride. Absorbance was read at 430 nm over a period of 90 min and compared to sample blanks, lacking chromogen. To measure individual immunity, phenoloxidase activity was measured as described. Abdomens were homogenized as and centrifuged as previously described. Supernatant was incubated at 37 °C, then combined with the chromogen L-Dopa. Absorbance was measured at 490 nm for 20 min, then compared to sample blanks lacking chromogen. To compare both glucose oxidase and phenol oxidase activity between samples, Vmax was calculated using the Michaelis–Menten equation.

SMILES: CC(N/C(=N\C#N)Nc1ccncc1)C(C)(C)C (stereo not shown) [pinacidil]
- Reduction in IAPV mRNA titer in the dorsal vessel versus IAPV-inoculated bees [1]: 17.5 fold
- Antioxidant levels compared to untreated individuals ([2]; 24 h post-treatment): did not reduce
- Reduction of total antioxidant concentrations ([2]; 72 h): 1.5 fold
- POX activity [3]: no statistical differences
